One assay has as its target T1, vanilloid receptor 1 (VR1/TRPV1 receptor) (Homo sapiens, UniProt Q8NER1).
T1 construct: expressed in transfected cells; host or cells: CHO K1
The experiment in a line: Functional testing on the vanilloid receptor 1 (FLIPR Ca2+ influx assay, capsaicin). In kind it is cell-based, human being. The conditions noted are these: @5 μM; Cap=capsaicin; read-out: inhibition (as a percentage), (f) (human being) Cap. The method, then:
Furthermore, preference may be given to compounds according to the invention that cause a 50 percent displacement of capsaicin, which is present at a concentration of 100 nM, in a FLIPR assay with CHO K1 cells which were transfected with the human VR1 gene at a concentration of less than 2,000 nM, preferably less than 1,000 nM, particularly preferably less than 300 nM, most particularly preferably less than 100 nM, even more preferably less than 75 nM, additionally preferably less than 50 nM, most preferably less than 10 nM.
In the process, the Ca^2+ influx is quantified in the FLIPR assay with the aid of a Ca^2+-sensitive dye (type Fluo-4, Molecular Probes Europe BV, Leiden, the Netherlands) in a fluorescent imaging plate reader (FLIPR, Molecular Devices, Sunnyvale, USA), as described hereinafter.
Pharmacological Methods I. Functional Testing Carried Out on the Vanilloid Receptor 1 (VR1/TRPV1 Receptor) […]
The number of cells in the suspension is set to 3×10^5 per mL and 150 μL of this suspension are in each case introduced into a recess in the cell culture plates coated as described hereinbefore. In the incubator the plates are left for two to three days at 37° C., 5% by volume of CO2 and 95% relative humidity. Subsequently, the cells are loaded with 2 μM of Fluo-4 and 0.01% by volume of Pluronic F127 (Molecular Probes Europe BV, Leiden, the Netherlands) in HBSS buffer (Hank's buffered saline solution, Gibco Invitrogen GmbH, Karlsruhe, Germany) for 30 min at 37° C., washed 3 times with HBSS buffer and after further incubation for 15 minutes at room temperature used for Ca^2+ measurement in a FLIPR assay. The Ca^2+-dependent fluorescence is in this case measured before and after the addition of substances (λex=488 nm, λem=540 nm). Quantification is carried out by measuring the highest fluorescence intensity (FC, fluorescence counts) over time.
The FLIPR protocol consists of 2 substance additions. First the compounds to be tested (10 μM) are pipetted onto the cells and the Ca^2+ influx is compared with the control (capsaicin 10 μM). This provides the result in % activation based on the Ca^2+ signal after the addition of 10 μM of capsaicin (CP). After 5 minutes' incubation, 100 nM of capsaicin are applied and the Ca^2+ influx is also determined.
Desensitising agonists and antagonists lead to suppression of the Ca^2+ influx. The % inhibition is calculated compared to the maximum achievable inhibition with 10 μM of capsazepine. Triple analyses (n=3) are carried out and repeated in at least 3 independent experiments (N=4). Starting from the percentage displacement caused by different concentrations of the compounds to be tested of general formula I, IC50 inhibitory concentrations which cause a 50-percent displacement of capsaicin were calculated. Ki values for the test substances were obtained by conversion by means of the Cheng-Prusoff equation (Cheng, Prusoff; Biochem. Pharmacol. 22, 3099-3108, 1973).
The affinity of the compounds of to the invention for the vanilloid receptor 1 (VR1/TRPV1 receptor) was determined as described hereinbefore (pharmacological method I). The compounds of the invention display outstanding affinity to the VR1/TRPV1 receptor (Table 2). In Table 2 the abbreviations below have the following meanings: • Cap=capsaicin • AG=agonist • NE=no effect
The value after the “@” symbol indicates the concentration at which the inhibition (as a percentage) was respectively determined.
T1 sequence (Q8NER1 whole entry): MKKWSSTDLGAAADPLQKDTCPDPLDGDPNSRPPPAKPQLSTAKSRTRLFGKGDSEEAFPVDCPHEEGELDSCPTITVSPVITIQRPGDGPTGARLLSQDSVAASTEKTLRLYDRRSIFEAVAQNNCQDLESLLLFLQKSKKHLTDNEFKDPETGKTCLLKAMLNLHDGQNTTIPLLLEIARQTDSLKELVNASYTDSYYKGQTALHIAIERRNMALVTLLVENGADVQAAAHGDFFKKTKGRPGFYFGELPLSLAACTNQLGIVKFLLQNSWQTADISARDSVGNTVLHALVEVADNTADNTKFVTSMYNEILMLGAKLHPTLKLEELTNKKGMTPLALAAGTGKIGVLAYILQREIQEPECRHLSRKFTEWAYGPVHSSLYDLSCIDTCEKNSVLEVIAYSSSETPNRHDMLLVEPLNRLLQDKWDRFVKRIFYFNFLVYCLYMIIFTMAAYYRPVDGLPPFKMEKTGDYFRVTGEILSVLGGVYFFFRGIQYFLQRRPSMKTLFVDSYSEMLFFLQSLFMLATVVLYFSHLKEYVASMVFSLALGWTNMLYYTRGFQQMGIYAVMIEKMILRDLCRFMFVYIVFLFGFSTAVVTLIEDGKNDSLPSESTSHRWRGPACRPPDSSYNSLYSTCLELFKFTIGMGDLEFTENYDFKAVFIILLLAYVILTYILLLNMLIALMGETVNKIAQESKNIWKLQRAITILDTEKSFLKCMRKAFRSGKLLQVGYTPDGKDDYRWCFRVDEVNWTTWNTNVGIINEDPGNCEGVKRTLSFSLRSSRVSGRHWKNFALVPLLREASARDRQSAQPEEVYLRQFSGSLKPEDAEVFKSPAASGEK
The term inhibition denotes the change of the read-out against control, counted positive when it falls. As to `CC(=O)Nc1nc2ccc(NC(=O)NCc3ccc(C(F)(F)F)nc3N3CCC(C)CC3)cc2s1` [Example 35, N-(6-(3-((2-(4-Methylpiperidin-1-yl)-6-(trifluoromethyl)pyridin-3-yl)methyl)ureido)benzo[d]thiazol-2-yl)acetamide], the inhibition at 5 µM worked out at 47%.

With `Cc1cc(NC(=O)NCc2ccc(C(F)(F)F)nc2N2CCC(C)CC2)c2cn[nH]c2c1` [Example 56, 1-(6-Methyl-1H-indazol-4-yl)-3-((2-(4-methylpiperidin-1-yl)-6-(trifluoromethyl)pyridin-3-yl)methyl)urea], the inhibition at 5 µM was 45%.

Regarding `O=C(NCc1ccc(C(F)(F)F)nc1SC1CCCCC1)Nc1ccc2ccccc2n1` [Example 11, 1-((2-(Cyclohexylthio)-6-(trifluoromethyl)pyridin-3-yl)methyl)-3-(quinolin-2-yl)urea], the inhibition at 5 µM was 19%.

Turning to `CC1CCN(c2nc(C(F)(F)F)ccc2CNC(=O)Nc2ccnc3[nH]ncc23)CC1` [Example 9, 1-((2-(4-Methylpiperidin-1-yl)-6-(trifluoromethyl)pyridin-3-yl)methyl)-3-(1H-pyrazolo[3,4-b]pyridin-4-yl)urea], the inhibition at 5 µM was 22%.

The same assay, now with this note: Cap=capsaicin (100 nM); Ki from IC50 by Cheng-Prusoff equation; read-out: (f) Ki (human being) [nM] Cap.
As usually defined, the Ki is the dissociation constant of the complex between target and ligand, obtained from inhibition or displacement. `Cc1ccc2cccc(NC(=O)NCc3ccc(C(F)(F)F)nc3N3CCC(C)CC3)c2n1` [Example 73, 1-((2-(4-Methylpiperidin-1-yl)-6-(trifluoromethyl)pyridin-3-yl)methyl)-3-(2-methylquinolin-8-yl)urea]: the Ki was determined as 24 nM.

Regarding `CC(C)Oc1nc(C(F)(F)F)ccc1CNC(=O)Nc1cccc2ncccc12` [Example 65, 1-((2-Isopropoxy-6-(trifluoromethyl)pyridin-3-yl)methyl)-3-(quinolin-5-yl)urea], the inhibitory constant (Ki) amounted to 4 nM.

In the case of `CC1CCN(c2nc(C(F)(F)F)ccc2CNC(=O)Nc2cccc3[nH]c(C(C)(C)C)cc23)CC1` [Example 43, 1-(2-Tert-butyl-1H-indol-4-yl)-3-((2-(4-methylpiperidin-1-yl)-6-(trifluoromethyl)pyridin-3-yl)methyl)urea], the Ki amounted to 8 nM.

As for `CC1CCN(c2nc(C(F)(F)F)ccc2CNC(=O)Nc2cccc3c(O)ncnc23)CC1` [Example 89, 1-(4-Hydroxyquinazolin-8-yl)-3-((2-(4-methylpiperidin-1-yl)-6-(trifluoromethyl)pyridin-3-yl)methyl)urea], the Ki was 17 nM.

Take `CC1CCN(c2nc(C(C)(C)C)ccc2CNC(=O)Nc2cccc3ncccc23)CC1` [Example 64, 1-((6-Tert-butyl-2-(4-methylpiperidin-1-yl)pyridin-3-yl)methyl)-3-(quinolin-5-yl)urea]: the inhibition constant (Ki) is 1 nM.

For the molecule `O=C(NCc1ccc(C(F)(F)F)nc1SC1CCCCC1)Nc1cccc2ccncc12` [Example 85, 1-((2-(Cyclohexylthio)-6-(trifluoromethyl)pyridin-3-yl)methyl)-3-(isoquinolin-8-yl)urea], the Ki worked out at 1 nM.

Turning to `CC1CCN(c2nc(C(F)(F)F)ccc2CNC(=O)Nc2cnc3[nH]ncc3c2)CC1` [Example 5, 1-((2-(4-methylpiperidin-1-yl)-6-(trifluoromethyl)pyridin-3-yl)methyl)-3-(1H-pyrazolo[3,4-b]pyridin-5-yl)urea], the Ki was 21 nM.

For the molecule `Cc1nc2cc(NC(=O)NCc3ccc(C(F)(F)F)nc3N3CCC(C)CC3)ccc2s1` [Example 30, 1-(2-Methylbenzo[d]thiazol-5-yl)-3-((2-(4-methylpiperidin-1-yl)-6-(trifluoromethyl)pyridin-3-yl)methyl)urea], the Ki turned out to be 22 nM.

On to `CC1CCN(c2nc(C(F)(F)F)ccc2CNC(=O)Nc2c(Cl)ccc3[nH]ncc23)CC1` [Example 57, 1-(5-Chloro-1H-indazol-4-yl)-3-((2-(4-methylpiperidin-1-yl)-6-(trifluoromethyl)pyridin-3-yl)methyl)urea], for which the Ki worked out at 3 nM.

As for `CC1CCN(c2cc(C(F)(F)F)ccc2CNC(=O)Nc2cc(F)cc3[nH]ncc23)CC1` [Example 53, 1-(6-Fluoro-1H-indazol-4-yl)-3-(2-(4-methylpiperidin-1-yl)-4-(trifluoromethyl)benzyl)urea], the Ki amounted to 1 nM.

As for `CC(=O)n1ccc2c(NC(=O)NCc3ccc(C(F)(F)F)nc3N3CCC(C)CC3)cccc21` [Example 41, 1-(1-Acetyl-1H-indol-4-yl)-3-((2-(4-methylpiperidin-1-yl)-6-(trifluoromethyl)pyridin-3-yl)methyl)urea], the Ki came out at 8 nM.

For `CC1CCN(c2nc(C(F)(F)F)ccc2CNC(=O)Nc2ccc3nc(N)sc3c2)CC1` [Example 34, 1-(2-Aminobenzo[d]thiazol-6-yl)-3-((2-(4-methylpiperidin-1-yl)-6-(trifluoromethyl)pyridin-3-yl)methyl)urea], the Ki was determined as 50 nM.

With `Cc1nc2ccc(NC(=O)NCc3ccc(C(F)(F)F)nc3N3CCC(C)CC3)cc2s1` [Example 33, 1-(2-Methylbenzo[d]thiazol-6-yl)-3-((2-(4-methylpiperidin-1-yl)-6-(trifluoromethyl)pyridin-3-yl)methyl)urea], the Ki came to 4 nM.

Consider `CC(C(=O)NCc1ccc(C(F)(F)F)nc1SC1CCCCC1)c1cnc2ccccc2c1` (centres unmarked) [Example 15, N-((2-(Cyclohexylthio)-6-(trifluoromethyl)pyridin-3-yl)methyl)-2-(quinolin-3-yl)propanamide], for which the Ki worked out at 50 nM.

Regarding `CC1CCN(c2nc(C(F)(F)F)ccc2CNC(=O)Nc2cccc3[nH]cnc23)CC1` [Example 58, 1-(1H-Benzo[d]imidazol-4-yl)-3-((2-(4-methylpiperidin-1-yl)-6-(trifluoromethyl)pyridin-3-yl)methyl)urea], the Ki stood at 3 nM.

As to `CC1CCN(c2nc(C(F)(F)F)ccc2CNC(=O)Nc2ccc3ccncc3c2)CC1` [Example 84, 1-(Isoquinolin-7-yl)-3-((2-(4-methylpiperidin-1-yl)-6-(trifluoromethyl)pyridin-3-yl)methyl)urea], the Ki came to 8 nM.

Take `O=C(NCc1ccc(C(F)(F)F)nc1SC1CCCCC1)Nc1cncc2ccccc12` [Example 19, 1-((2-(Cyclohexylthio)-6-(trifluoromethyl)pyridin-3-yl)methyl)-3-(isoquinolin-4-yl)urea]: the Ki is 4 nM.

With `CC1CCN(c2nc(C(F)(F)F)ccc2CNC(=O)Nc2cccc3c(Cl)nccc23)CC1` [Example 79, 1-(1-Chloroisoquinolin-5-yl)-3-((2-(4-methylpiperidin-1-yl)-6-(trifluoromethyl)pyridin-3-yl)methyl)urea], the inhibition constant (Ki) stood at 0.8 nM.

Take `CC1CCN(c2nc(C(F)(F)F)ccc2CNC(=O)C(C)c2cnc3ccccc3c2)CC1` (centres unmarked) [Example 14, N-((2-(4-Methylpiperidin-1-yl)-6-(trifluoromethyl)pyridin-3-yl)methyl)-2-(quinolin-3-yl)propanamide]: the Ki came out at 44 nM.

Take `CC1CCN(c2nc(C(F)(F)F)ccc2CNC(=O)Nc2cccc3scnc23)CC1` [Example 59, 1-(Benzo[d]thiazol-4-yl)-3-((2-(4-methylpiperidin-1-yl)-6-(trifluoromethyl)pyridin-3-yl)methyl)urea]: the Ki worked out at 18 nM.

For `CC1CCN(c2nc(C(F)(F)F)ccc2CNC(=O)Nc2cc(Cl)cc3[nH]ncc23)CC1` [Example 55, 1-(6-Chloro-1H-indazol-4-yl)-3-((2-(4-methylpiperidin-1-yl)-6-(trifluoromethyl)pyridin-3-yl)methyl)urea], the Ki turned out to be 4 nM.

For the molecule `CC1CCN(c2cc(C(C)(C)C)ccc2CNC(=O)Nc2cccc3ncccc23)CC1` [Example 62, 1-(4-Tert-butyl-2-(4-methylpiperidin-1-yl)benzyl)-3-(quinolin-5-yl)urea], the inhibitory constant (Ki) was found to be 1 nM.

For the origin of these results see patent publication US9029378B2, “Substituted bicyclic aromatic carboxamide and urea compounds as vanilloid receptor ligands” (Gruenenthal GmbH, priority 2011, dated 2015).
